Where “and” joins values, the source holds several entries; their conditions need not be identical. Identical values can stand only once. Like-named read-outs stand apart in the source and are kept apart here. Positions of bridges follow the written chain, without caps; N, C: chain ends. Residues, ends and D or L forms follow the SMILES beside them.
What was measured:
Female beagles [1] = details: dog, in vivo
Description: (§1) One hour later, enteric aspirin tablets (containing 200 mg of the active ingredient) were administered orally together with 25 ml of water. Thereafter, blood samples were taken from the other cephalic vein at given time intervals, and the plasma obtained in the usual manner was stored at -20° C. until measurement.
(§2) As it passes through the intestinal wall, most of the ingested aspirin is metabolized and enters the blood stream as salicylic acid. […] Ethanol (200 μl) was added to 50 μl of plasma and the mixture was centrifuged at 10,000 rpm×1 min, with the resulting supernatant being subjected to HPLC.
(§3) The difference between the time from calcitonin administration to the absorption of aspirin and the time from physiological saline administration to the absorption of aspirin was calculated for each animal to determine the delay in gastric emptying time.

Rats = experiment: Effects of calcitonins on the inhibition of body weight gain and appetite; details: intramuscular, 12.5, 50 and 200 IU/kg, 24 h later
Description: Each of the calcitonins was administered in three different doses: 12.5 IU/kg, 50 IU/kg and 200 IU/kg. For the body weight changes, the measured values were averaged for 5 rats, and for the food consumption, the measured values for 5 rats were added together.

conscious dog = experiment: Effects of calcitonins on gastrointestinal motility (IMC) in conscious dog; format: in vivo, beagle dog; details: for effect on the IMC / gastrointestinal motility: i.v., conscious dog, summary of Table 10
From the text: A healthy beagle dog weighing about 10 kg was anesthetized with an i.v. injection of pentobarbital sodium and the abdominal cavity was opened under aseptic conditions.
Extraluminal force transducers were sutured onto the serosa of the gastric antrum stomach, duodenum and jejunum to measure circular muscle contraction, as reported previously (Itoh et al. Gastroenterol Jpn. 12, 275 1977).
The lead wires of these transducers were out of the abdominal cavity and then brought out through a skin incision made between the scapulae.
After the abdominal surgery, a 5-cm longitudinal skin incision was made in the right Frontal neck to expose the external jugular vein.
After the operation, a jacket protector was placed on the dog to protect the lead wires and the Silastic tube.
The dog was housed in individual experimental cage, and given commercial dog food at 5:00 P.M. and water was given freely.
The gastrointestinal motor activity was recorded on a thermal pen writing recorder (WR-3101, Graphtic, Tokyo, Japan) by connecting the lead wires of the transducers to the connecting cables from the amplifiers (UG-5, Nihon Kohden, Tokyo, Japan).
About two weeks postoperation, gastrointestinal contractile activity could be divided into two main patterns of activity, the interdigestive and digestive states.
In the interdigestive state, IMC (interdigestive migrating motor complex) were seen to occur at regular intervals of 100 to 120 min. in the gastric antrum, and migrated through the duodenum and jejunum at a constant velocity.
In all animals, feeding disrupted the regular IMC pattern. Experiments were carried out during interdigestive state. The drug was dissolved into 0.9% saline and administered through the indwelling Silastic tube for about 10 seconds in a volume of 0.3 ml/kg.
15 Min after the end of the IMC in the gastric antrum, which were subsequently flushed in with 0.9% saline.
The time until the next IMC is occurred from administration of the drug was measured, and used as a index for inhibitory activity of the drug on gastrointestinal motility.

hypercalcemic rats = experiment: Efficacy of calcitonins against hypercalcemia (vitamin D3 hypercalcemic rats); format: in vivo, rat; details: 4 IU/kg subcutaneously, FIG. 1
Description: Vitamin D3 (5 mg/kg) was administered orally to 5-wk old SD male rats for 4 consecutive days to construct experimental models of hypercalcemic rats. […] Blood was sampled at given time intervals and the concentration of calcium in plasma was measured.

Female beagles [2] = experiment: Effects of calcitonins on gastric emptying time (enteric aspirin absorption); details: for Delay time (difference in time to aspirin absorption between calcitonin and physiological saline) / Lag time (time from aspirin administration to its absorption): individual animals
Description: as §1, §2, §3

[3] = system: anti-salmon calcitonin human sera; experiment: Cross reaction between anti-salmon calcitonin human antibody and hybrid calcitonin (competition with 125I labelled salmon calcitonin); format: binding; details: anti-salmon calcitonin human sera Nos. 1-4, FIG. 5
Description: Salmon calcitonin was synthesized by an ordinary procedure of solid-phase synthesis. Salmon calcitonin labelled with ^125 I was prepared by the Tejedor method (Tejedor, F. and Ballesta, J. P. G.; Analytical Biochemistry, 127, 143-149 (1982)).
Four types of human sera that had been verified to contain antibody after administration of salmon calcitonin were furnished from Dr. Frederick R. Singer (CEDERS-SINAI MEDICAL CENTER). The antibody titres of those sera against salmon calcitonin were as follows:
A 0.1M borate buffer solution (pH 8.0) containing 0.5% BSA, 0.9% NaCl, 0.1% NaN3 and 0.05% Tween 20 was used as a reaction buffer. This reaction buffer, anti-salmon calcitonin human serum (diluted with the reaction buffer to a final dilution of 100-6,400) and a solution of labelled calcitonin were charged into an assist tube (Spitz type of Salschted Inc. measuring 12×75 mm) in the respective volumes shown below, stirred thoroughly, and left to stand overnight at room temperature.
The reaction solution was mixed well with 500 μl of 0.2% BGG (bovine γ-globulin, Sigma), further mixed with 1 ml of 25% PEG #6000, stirred thoroughly and thereafter left to stand at room temperature for 15 min. […] After removing the supernatant by aspiration, the radioactivity level of the residue was measured with a gamma-counter. […]

delay of the occurrence of the next IMC (conscious dog; dose of 3 μg/kg i.v.) [days]	Structure (SMILES)	action in delaying the gastric emptying time (Female beagles [1])	body weight change (inhibition of body weight gain) (Rats; FIG. 3)	food consumption (appetite) (Rats; FIG. 4)	effect on the IMC / gastrointestinal motility (conscious dog)	effect on elevated blood (plasma) calcium concentration (hypercalcemic rats)	action in delaying the gastric emptying time (Female beagles [2]; beagles, summary of Table 9)	Delay time (difference in time to aspirin absorption between calcitonin and physiological saline) (Female beagles [2]; dose 6 μg (1.2 IU)/kg i.v.)	Lag time (time from aspirin administration to its absorption) (Female beagles [2]; dose 6 μg (1.2 IU)/kg i.v.)	Delay time (difference in time to aspirin absorption between calcitonin and physiological saline) (Female beagles [2]; dose 100 μg (20.0 IU)/kg i.v.)	Lag time (time from aspirin administration to its absorption) (Female beagles [2]; dose 100 μg (20.0 IU)/kg i.v.)	dose at which competition with 125I labelled salmon calcitonin started [3]
	CSCC[C@H](NC(=O)[C@@H]1CSSC[C@H](N)C(=O)NCC(=O)N[C@@H](CC(N)=O)C(=O)N[C@@H](CC(C)C)C(=O)N[C@@H](CO)C(=O)N[C@@H]([C@@H](C)O)C(=O)N1)C(=O)N[C@@H](CC(C)C)C(=O)NCC(=O)N[C@H](C(=O)N[C@@H](Cc1ccc(O)cc1)C(=O)N[C@H](C(=O)N[C@@H](CCC(N)=O)C(=O)N[C@@H](CC(=O)O)C(=O)N[C@@H](Cc1ccccc1)C(=O)N[C@@H](Cc1c[nH]cn1)C(=O)N[C@@H](CCCCN)C(=O)N[C@@H](CC(C)C)C(=O)N[C@@H](CCC(N)=O)C(=O)N[C@H](C(=O)N[C@@H](Cc1ccc(O)cc1)C(=O)N1CCC[C@H]1C(=O)N[C@@H](CCCNC(=N)N)C(=O)N[C@H](C(=O)N[C@@H](CC(N)=O)C(=O)N[C@H](C(=O)NCC(=O)N[C@@H](CO)C(=O)NCC(=O)N[C@H](C(=O)N1CCC[C@H]1C(N)=O)[C@@H](C)O)[C@@H](C)O)[C@@H](C)O)[C@@H](C)O)[C@@H](C)O)[C@@H](C)O [Example 1, (1-16) human/(17-32) salmon hybrid calcitonin] (H-CGNLSTCMLGTYTQDFHKLQTYPRTNTGSGTP-NH2; disulfide 1-7)	more similar to human calcitonin than salmon calcitonin in delaying to gastric emptying time										
	CC[C@H](C)[C@H](NC(=O)[C@H](C)NC(=O)[C@@H](NC(=O)[C@H](CCC(N)=O)NC(=O)[C@@H]1CCCN1C(=O)[C@H](Cc1ccccc1)NC(=O)[C@@H](NC(=O)[C@H](Cc1c[nH]cn1)NC(=O)[C@H](Cc1ccccc1)NC(=O)[C@H](CCCCN)NC(=O)[C@H](CC(N)=O)NC(=O)[C@H](Cc1ccccc1)NC(=O)[C@H](CC(=O)O)NC(=O)[C@H](CCC(N)=O)NC(=O)[C@@H](NC(=O)[C@H](Cc1ccc(O)cc1)NC(=O)[C@@H](NC(=O)CNC(=O)[C@H](CC(C)C)NC(=O)[C@H](CCSC)NC(=O)[C@@H]1CSSC[C@H](N)C(=O)NCC(=O)N[C@@H](CC(N)=O)C(=O)N[C@@H](CC(C)C)C(=O)N[C@@H](CO)C(=O)N[C@@H]([C@@H](C)O)C(=O)N1)[C@@H](C)O)[C@@H](C)O)[C@@H](C)O)[C@@H](C)O)C(=O)NCC(=O)N[C@H](C(=O)NCC(=O)N[C@@H](C)C(=O)N1CCC[C@H]1C(N)=O)C(C)C [human calcitonin]		no differences	no differences	only a slight effect on the IMC	caused rapid reduction in the elevated blood calcium concentration	weak in such action	1.3 h and 2.6 h and 2.9 h	3.0 h and 3.9 h and 4.0 h	4.4 h and 5.0 h	5.0 h and 6.9 h	
3	CC(C)C[C@H](NC(=O)[C@H](CCCCN)NC(=O)CNC(=O)[C@H](CC(C)C)NC(=O)[C@@H](NC(=O)[C@@H]1CSSC[C@H](N)C(=O)N[C@@H](CO)C(=O)N[C@@H](CC(N)=O)C(=O)N[C@@H](CC(C)C)C(=O)N[C@@H](CO)C(=O)N[C@@H]([C@@H](C)O)C(=O)N1)C(C)C)C(=O)N[C@@H](CO)C(=O)N[C@@H](CCC(N)=O)C(=O)N[C@@H](CCC(=O)O)C(=O)N[C@@H](CC(C)C)C(=O)N[C@@H](Cc1c[nH]cn1)C(=O)N[C@@H](CCCCN)C(=O)N[C@@H](CC(C)C)C(=O)N[C@@H](CCC(N)=O)C(=O)N[C@H](C(=O)N[C@@H](Cc1ccc(O)cc1)C(=O)N1CCC[C@H]1C(=O)N[C@@H](CCCNC(=N)N)C(=O)N[C@H](C(=O)N[C@@H](CC(N)=O)C(=O)N[C@H](C(=O)NCC(=O)N[C@@H](CO)C(=O)NCC(=O)N[C@H](C(=O)N1CCC[C@H]1C(N)=O)[C@@H](C)O)[C@@H](C)O)[C@@H](C)O)[C@@H](C)O [salmon calcitonin]	very strong action in delaying the gastric emptying time			does-dependently inhibited the occurrence of the next IMC	caused rapid reduction in the elevated blood calcium concentration						at least 1 ng/ml
